In ChEMBL document CHEMBL4602680, “Dammarane-Type Triterpenoids from the Roots of Rhus chinensis and Their Preventive Effects on Zebrafish Heart Failure and Thrombosis” (J Nat Prod, 2020):
Calls of active or inactive are those of the source. No cut-off for these calls is given here.

Tests used:
Danio rerio [1] = species: Danio rerio; test: Antithrombotic activity in ponatinib treated zebrafish AB assessed as preventive efficacy on thrombosis at 45 ug/ml incubated for 18 hrs by O-dianisidine staining based assay relative to ponatinib alone; format: functional
[2] = Toxicity in zebrafish assessed as effect on blood flow at 0.5 ug/ml in presence of verapamil; design: species or system Danio rerio; details: in vivo
[3] = Toxicity in zebrafish assessed as induction of adverse effect at 0.5 ug/ml; design: species or system Danio rerio; details: in vivo
[4] = Toxicity in zebrafish assessed as effect on blood flow at 0.5 ug/ml in presence of ponatinib; design: species or system Danio rerio; details: in vivo
[5] = Toxicity in zebrafish assessed as induction of adverse effect at 0.5 ug/ml in presence of verapamil; design: species or system Danio rerio; details: in vivo
Danio rerio [6] = species: Danio rerio; test: Prevention of heart failure in verapamil treated zebrafish AB assessed as efficacy on heart dilation preincubated for 4.5 hrs followed by verapamil treatment and measured after 30 mins; format: functional, organism-based
[7] = Toxicity in zebrafish assessed as induction of adverse effect at 0.5 ug/ml in presence of ponatinib; design: species or system Danio rerio; details: in vivo
Danio rerio [8] = species: Danio rerio; test: prevention of heart failure in verapamil treated zebrafish AB assessed as efficacy on blood flow velocity at 0.5 ug/ml preincubated for 4.5 hrs followed by verapamil treatment and measured after 30 mins relative to verapamil alone; format: functional
Danio rerio [9] = species: Danio rerio; test: Antithrombotic activity in ponatinib treated zebrafish AB assessed as preventive efficacy on thrombosis at 0.5 ug/ml incubated for 18 hrs by O-dianisidine staining based assay relative to ponatinib alone; format: functional
Danio rerio [10] = species: Danio rerio; test: prevention of heart failure in verapamil treated zebrafish AB assessed as efficacy on venous congestion at 0.5 ug/ml preincubated for 4.5 hrs followed by verapamil treatment and measured after 30 mins relative to verapamil alone; format: functional
Danio rerio [11] = species: Danio rerio; test: prevention of heart failure in verapamil treated zebrafish AB assessed as efficacy on heart rate at 0.5 ug/ml preincubated for 4.5 hrs followed by verapamil treatment and measured after 30 mins relative to verapamil alone; format: functional
Danio rerio [12] = species: Danio rerio; test: prevention of heart failure in verapamil treated zebrafish AB assessed as efficacy on cardiac output at 0.5 ug/ml preincubated for 4.5 hrs followed by verapamil treatment and measured after 30 mins relative to verapamil alone; format: functional
Danio rerio [13] = species: Danio rerio; test: Prevention of heart failure in verapamil treated zebrafish AB assessed as efficacy on heart dilation at 0.5 ug/ml preincubated for 4.5 hrs followed by verapamil treatment and measured after 30 mins relative to verapamil alone; format: functional
Danio rerio [14] = species: Danio rerio; test: prevention of heart failure in verapamil treated zebrafish AB assessed as efficacy on venous congestion at 10 ug/ml preincubated for 4.5 hrs followed by verapamil treatment and measured after 30 mins relative to verapamil alone; format: functional
Danio rerio [15] = species: Danio rerio; test: prevention of heart failure in verapamil treated zebrafish AB assessed as efficacy on cardiac output at 10 ug/ml preincubated for 4.5 hrs followed by verapamil treatment and measured after 30 mins relative to verapamil alone; format: functional
Danio rerio [16] = species: Danio rerio; test: Prevention of heart failure in verapamil treated zebrafish AB assessed as efficacy on heart dilation at 10 ug/ml preincubated for 4.5 hrs followed by verapamil treatment and measured after 30 mins relative to verapamil alone; format: functional
Danio rerio [17] = species: Danio rerio; test: prevention of heart failure in verapamil treated zebrafish AB assessed as efficacy on blood flow velocity at 10 ug/ml preincubated for 4.5 hrs followed by verapamil treatment and measured after 30 mins relative to verapamil alone; format: functional
Danio rerio [18] = species: Danio rerio; test: prevention of heart failure in verapamil treated zebrafish AB assessed as efficacy on venous congestion at 0.8 ug/ml preincubated for 4.5 hrs followed by verapamil treatment and measured after 30 mins relative to verapamil alone; format: functional
Danio rerio [19] = species: Danio rerio; test: Prevention of heart failure in verapamil treated zebrafish AB assessed as efficacy on heart dilation at 0.8 ug/ml preincubated for 4.5 hrs followed by verapamil treatment and measured after 30 mins relative to verapamil alone; format: functional
Danio rerio [20] = species: Danio rerio; test: prevention of heart failure in verapamil treated zebrafish AB assessed as efficacy on heart rate at 0.8 ug/ml preincubated for 4.5 hrs followed by verapamil treatment and measured after 30 mins relative to verapamil alone; format: functional
Danio rerio [21] = species: Danio rerio; test: prevention of heart failure in verapamil treated zebrafish AB assessed as efficacy on cardiac output at 0.8 ug/ml preincubated for 4.5 hrs followed by verapamil treatment and measured after 30 mins relative to verapamil alone; format: functional
Danio rerio [22] = species: Danio rerio; test: prevention of heart failure in verapamil treated zebrafish AB assessed as efficacy on blood flow velocity at 0.8 ug/ml preincubated for 4.5 hrs followed by verapamil treatment and measured after 30 mins relative to verapamil alone; format: functional

Compound	Activity [3]	Activity [5]	Activity [7]	Activity (Danio rerio [8])	Activity (Danio rerio [9])	Activity (Danio rerio [10])	Activity (Danio rerio [11])	Activity (Danio rerio [12])	Activity (Danio rerio [13])	further results
CC(=O)Oc1ccccc1C(=O)O [ASPIRIN]	–	–	–	–	–	–	–	–	–	Activity (Danio rerio [1]): 86%
C=C([C@@H]1CC=C(C)C(=O)O1)[C@@H]1CC[C@]2(C)[C@@H]1CC[C@@H]1[C@]34CC[C@@](O)(OC3)C(C)(C)[C@@H]4CC[C@]12C	Non-Toxic	–	–	–	–	–	–	–	–	Activity [2]: Toxic; Activity [4]: Toxic
C=C(CCC=C(CO)CO)[C@@H]1CC[C@]2(C)[C@@H]1CC[C@@H]1[C@@]3(C)CCC(=O)C(C)(C)[C@@H]3CC[C@]12C	Non-Toxic	Non-Toxic	Non-Toxic	–	–	–	–	–	–	Activity (Danio rerio [6]): inactive
C=C([C@@H]1CC=C(C)C(=O)O1)[C@@H]1CC[C@]2(C)[C@@H]1CC[C@@H]1[C@@]34CO[C@](O)([C@@H](O)C3)C(C)(C)[C@@H]4CC[C@]12C	Non-Toxic	Non-Toxic	Non-Toxic	27%	76%	31%	57%	22%	73%	–
CCOC(=O)[C@H](CCc1ccccc1)N[C@@H](C)C(=O)N1CCC[C@H]1C(=O)O [ENALAPRIL]	–	–	–	–	–	–	–	–	–	Activity (Danio rerio [14]): 34%; Activity (Danio rerio [15]): 34%; Activity (Danio rerio [16]): 31%; Activity (Danio rerio [17]): 26%
C[C@H]1O[C@@H](O[C@H]2[C@@H](O)C[C@H](O[C@H]3[C@@H](O)C[C@H](O[C@H]4CC[C@@]5(C)[C@H](CC[C@@H]6[C@@H]5C[C@@H](O)[C@]5(C)[C@@H](C7=CC(=O)OC7)CC[C@]65O)C4)O[C@@H]3C)O[C@@H]2C)C[C@H](O)[C@@H]1O [DIGOXIN]	–	–	–	28%	–	73%	–	40%	53%	Activity (Danio rerio [18]): 67%; Activity (Danio rerio [19]): 68%; Activity (Danio rerio [20]): 52%; Activity (Danio rerio [21]): 41%; Activity (Danio rerio [22]): 38%
C=C([C@@H]1CC=C(C)C(=O)O1)[C@@H]1CC[C@]2(C)[C@@H]1CC[C@@H]1[C@@]3(C)CCC(=O)C(C)(C)[C@@H]3CC[C@]12C	Non-Toxic	Non-Toxic	Non-Toxic	67%	65%	23%	27%	41%	55%	–
C=C([C@@H]1CC[C@]2(C)[C@@H]1CC[C@@H]1[C@]34CC[C@@](O)(OC3)C(C)(C)[C@@H]4CC[C@]12C)[C@@H]1OC(=O)C(C)=C[C@H]1O	Non-Toxic	Non-Toxic	Non-Toxic	65%	10%	59%	54%	64%	63%	–
C=C(CC/C=C(/C)C(=O)O)[C@@H]1CC[C@]2(C)[C@@H]1CC[C@@H]1[C@]34CC[C@@](O)(OC3)C(C)(C)[C@@H]4CC[C@]12C	Non-Toxic	Non-Toxic	Non-Toxic	83%	24%	62%	77%	72%	65%	–
CCCCC1=NC2(CCCC2)C(=O)N1Cc1ccc(-c2ccccc2-c2nnn[nH]2)cc1 [IRBESARTAN]	–	–	–	15%	–	36%	–	25%	30%	–
C/C(=C/CC/C(CO)=C1\CC[C@]2(C)[C@@H]1CC[C@@H]1[C@@]3(C)CCC(=O)C(C)(C)[C@@H]3CC[C@]12C)CO	Non-Toxic	Non-Toxic	Non-Toxic	–	–	–	–	–	–	Activity (Danio rerio [6]): inactive
C=C([C@@H]1CC=C(C)C(=O)O1)[C@@H]1CC[C@]2(C)[C@@H]1CC[C@@H]1[C@@]34CO[C@](O)(C[C@H]3O)C(C)(C)[C@@H]4CC[C@]12C	Non-Toxic	Non-Toxic	Non-Toxic	65%	68%	51%	60%	58%	66%	–
NS(=O)(=O)c1cc2c(cc1Cl)NCNS2(=O)=O [HYDROCHLOROTHIAZIDE]	–	–	–	33%	–	60%	–	53%	56%	–
COCCc1ccc(OCC(O)CNC(C)C)cc1 (configuration not stated) [METOPROLOL]	–	–	–	17%	–	29%	–	35%	34%	–
